Consider 4 compounds from patent US20140005177A1, “PYRIDINYL- AND PYRAZINYL-METHYLOXY-ARYL DERIVATIVES USEFUL AS INHIBITORS OF SPLEEN TYROSINE KINASE (SYK)” (GLAXO GROUP LIMITED, priority 2011, published 2014).

One series concerns Ramos B cells. Nature of the series: Ramos pErk assay (anti-IgM stimulated B cells, pErk MSD). Format: cell-based. Conditions: Homo sapiens, Ramos, anti-IgM 5 μg/ml, pErk readout, read-out: average pIC50 (converted). How it is done: Ramos B cells (human B cells of Burkitt's Lymphoma) are stimulated using anti-IgM. […] The subsequent autophosphorylation of Syk leads to initiation of a signalling cascade resulting in B cell activation via the Erk MAP Kinase pathway. As a result Erk is phosphorylated and following cell lysis is detected by an immune capture assay.
Cells were plated at a density of 2.5×10^5/well in a volume of 25 μl assay medium (RPMI containing 10% heat inactivated foetal calf serum, 1% L-glutamine) in 96 v-well polypropylene plates. 25 μl appropriately diluted compound solution was added and the plate incubated for 30 min at 37° C. with 5% CO2. Cells were stimulated with 5 μl Fab′2 fragments of goat anti-human IgM (5 μg/ml final) for 7 min at 37° C. Cells are lysed by the addition of 55 μL 2×RIPA lysis buffer for 2 h at 4° C. Lysate may be frozen at this point at −80° C.
50 μl cell lysate was transferred to a 96 well MSD plate coated with anti-pErk1/2 (Thr/Tyr: 202/204; 185/187) capture antibody and incubated for 16 hours at 4° C. or 3 hours at room temperature. The plate was washed and an anti-pErk detection antibody added (25 μl/well) for 1 hour at room temperature. This was removed, 150 μL MSD read buffer added and the resultant electrochemiluminescence signal measured.
Compound was prepared as a 10 mM stock in DMSO and a dilution series prepared in DMSO using 9 successive 5-fold dilutions. This dilution series was diluted a further 1:100 with assay medium to give the final concentration range to be tested of 5×10^−5 to 2.56×10^−11M. Compound dilutions were prepared using the Biomek 2000 and Biomek Nx automated robotic pipetting systems.

For series [1] the following is noted: dosed intranasally, phase I/II, allergic rhinitis; cited from earlier work.
For series [2] the following is noted: further phase II clinical trial, allergic rhinitis; cited from earlier work.
The conditions of series [3]: cited from earlier work.
The test system of another series is B lymphoma (BKS-2). Conditions: murine BKS-2 B lymphoma model; cited from earlier work.

In the case of `Cc1ccnc(COc2ccc(Cl)nc2-c2ccc3c(c2)CNCC3)c1` [Example 49, 7-(6-chloro-3-{[(4-methyl-2-pyridinyl)methyl]oxy}-2-pyridinyl)-1,2,3,4-tetrahydroisoquinoline], the IC50 in the series on Ramos B cells is 0.158 to 6.31 µM.

With `Oc1cccc(Nc2ncc(F)c(Nc3cccc(O)c3)n2)c1` [Example R112], in series [1], the PGD2 result was “statistically significant decrease” and the clinical safety entry is reported as “safe across a range of indicators”. Besides, in series [2], the efficacy versus placebo result is “lack of efficacy versus placebo”.

Regarding `COc1cc(Nc2ncc(F)c(Nc3ccc4c(n3)N(COP(=O)(O)O)C(=O)C(C)(C)O4)n2)cc(OC)c1OC` [Example R788, fostamatinib disodium], the therapeutic effect result in series [3] (patients with DLBCL and CLL/SLL) was “therapeutic benefit”. For the same compound, the tolerability entry in series [3] (patients with relapsed or refractory B-Cell NHL) is on record as “well-tolerated”.

In the case of `COc1cc(/C=C/C(=O)CC(=O)/C=C/c2ccc(O)c(OC)c2)ccc1O` [curcumin], in the series on B lymphoma (BKS-2), the “tumour burden as measured by the total splenocyte number” value is reported as “significant reduction of tumour burden”.
